Assay: thermodynamic acid dissociation constant (pKa) of pH sensitive reagents
Type: physicochemical
Details: reagent properties used in simulations

SMILES: O=S1(=O)OC(c2cc(Br)c(O)c(Br)c2)(c2cc(Br)c(O)c(Br)c2)c2ccccc21 [Bromophenol Blue]
- pKa: 4.11

SMILES: O=S1(=O)OC(c2ccc(O)c(Cl)c2)(c2ccc(O)c(Cl)c2)c2ccccc21 [Chlorophenol Red]
- pKa: 6.11
